Reference: patent publication US20250145676A1, “FUNCTIONAL EXPRESSION OF ECTOPIC TMC1 AND TMC2 IN HETEROLOGOUS CELLS” (The Hong Kong University of Science and Technology, priority 2023, published 2025)

Target: T1, Fyn-mTMC2-mCherry+mTMIE channel (Mus musculus, UniProt Q8R4P4)
T1 construct: expressed in transfected cells; host or cells: PK-HEK293T (PIEZO1-knockout HEK293T)
T1 sequence (Q8R4P4 1-888): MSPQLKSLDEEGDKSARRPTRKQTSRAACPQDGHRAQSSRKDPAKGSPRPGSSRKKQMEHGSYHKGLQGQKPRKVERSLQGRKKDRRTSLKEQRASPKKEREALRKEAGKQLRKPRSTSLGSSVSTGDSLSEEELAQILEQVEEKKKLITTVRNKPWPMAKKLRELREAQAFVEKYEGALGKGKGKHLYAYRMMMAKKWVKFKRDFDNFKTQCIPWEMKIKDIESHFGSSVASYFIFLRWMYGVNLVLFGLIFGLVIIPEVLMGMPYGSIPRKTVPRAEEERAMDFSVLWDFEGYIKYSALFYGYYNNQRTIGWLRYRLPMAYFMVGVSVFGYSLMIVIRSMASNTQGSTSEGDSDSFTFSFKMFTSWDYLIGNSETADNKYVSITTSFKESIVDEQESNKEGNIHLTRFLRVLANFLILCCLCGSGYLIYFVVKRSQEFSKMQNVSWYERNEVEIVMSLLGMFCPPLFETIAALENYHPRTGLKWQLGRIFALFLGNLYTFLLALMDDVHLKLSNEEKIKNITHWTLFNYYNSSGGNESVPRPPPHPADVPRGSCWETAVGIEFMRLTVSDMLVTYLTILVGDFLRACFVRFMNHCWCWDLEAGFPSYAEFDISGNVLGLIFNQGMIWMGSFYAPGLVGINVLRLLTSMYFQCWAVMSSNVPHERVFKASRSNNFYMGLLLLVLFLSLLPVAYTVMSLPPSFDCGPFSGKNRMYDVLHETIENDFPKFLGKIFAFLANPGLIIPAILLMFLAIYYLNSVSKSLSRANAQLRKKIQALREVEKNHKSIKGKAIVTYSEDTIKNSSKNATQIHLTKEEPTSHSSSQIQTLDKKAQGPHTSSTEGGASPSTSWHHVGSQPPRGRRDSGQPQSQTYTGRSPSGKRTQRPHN
T1 sequence (Q8K467 29-153 partner): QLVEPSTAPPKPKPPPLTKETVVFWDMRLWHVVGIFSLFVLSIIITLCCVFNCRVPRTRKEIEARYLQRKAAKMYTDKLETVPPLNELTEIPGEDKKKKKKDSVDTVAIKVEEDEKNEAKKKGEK
Test: Whole-cell poking patch-clamp assay, DHS sensitivity of MS currents
Type: cell-based
Settings: 2 mM DHS in the bath; PK-HEK293T cells co-expressing Fyn-mTMC2-mCherry and mTMIE; 4 experiments, p=0.0044
Experimental: Briefly, PK-HEK293T cells were incubated for 24 h after transfection before performing the whole-cell patch-clamp assay at room temperature. For co-transfection of two plasmids, the w/w ratio of TMC1/2 plasmids and TMIE plasmid was 3:1. The bath solution contained (in mM) 137 NaCl, 5.8 KCl, 0.7 NaH2PO4, 10 HEPES, 1.3 CaCl2, 0.9 MgCl2, 5.6 glucose (pH 7.3 with NaOH); the pipette solution contained (in mM) 137 CsCl, 0.1 EGTA, 10 HEPES, 3.5 MgCl2 (pH 7.3 with CsOH). The recording glass pipettes (1B150-4 Borosilicate Glass Capillaries, World Precision Instruments) were pulled and polished using a pipette puller (DMZ, Zeitz Instruments) and featured a resistance of 3-5 MQ. The mechanical stimulus was applied by poking cells with a fire-polished glass probe with a tip diameter of 2-3 μm. […] The reversal potentials were calculated using Vpipette at zero current with correction for the junction potential of the pipette and bath solutions (+1.2 mV for whole cell recording). Data were analyzed with Clampfit 10.7 (Molecular Devices). For the measurement of the inactivation time constant, all current responses, except for traces with a noticeable shift in baseline, were individually calculated and averaged.

CN[C@@H]1[C@H](O[C@H]2[C@H](O[C@H]3[C@H](O)[C@@H](O)[C@H](NC(=N)N)[C@@H](O)[C@@H]3NC(=N)N)O[C@@H](C)[C@]2(O)CO)O[C@@H](CO)[C@H](O)[C@H]1O [DHS, dihydrostreptomycin]
DHS-sensitivity of whole-cell MS currents: DHS-sensitive
